According to patent US20230040081A1 (priority 2019, published 2023):
Several values for one entry are separate records, joined by “and”; a condition that tells them apart may be missing. Equal values may be shown once.

B1: vRNAP elongation scaffold (template DNA/non-template DNA/RNA) (mixed)
DNA 1: GACTTATGATCGGATAAGAGTCCAGCCAATGACAGATGCCTCATAGCC
DNA 2: GGCTATGAGGCATCCCATGCGTTGAGGACTCTTATCCGATCATAAGTC
RNA: GAGUUGUAAUAACAAGGGAAAUGUCAUUGGC
modifications: RNA 5'-triphosphate

Tests used:
viral RNA polymerase [1] = test: Potential inhibitors: Results Screen; type: biochemical; settings: test concentration not given
Experimental: (§1) Compound stocks were prepared at a concentration of 1 mM in 65% DMSO, at a volume of 5 μL each.

viral RNA polymerase [2] = test: Potential inhibitors: Results Hit validation; type: biochemical; settings: test concentration not given
Experimental: as §1

Clopt1 (Vaccinia virus) [3] = type: cell-based
Clopt1 (Vaccinia virus) [4] = type: cell-based; remark: listed apart in the source
[5] = target: Vaccinia RNA polymerase core enzyme (Rpo147/Rpo132/Rpo35/Rpo30/Rpo22/Rpo19/Rpo18/Rpo7) (Vaccinia virus (GLV-1h439, Lister …, UniProt P07392;Q76ZP7;P24757;P21603;P68609;P68611;P04310;P68317 …)); test: structure; settings: tags: HA/FLAG C-terminal on Rpo132

Molecule | Results Screen Median Screen (% inhibition) (viral RNA polymerase [1]) | Results Hit validation Median (% inhibition) (viral RNA polymerase [2]) | also measured
CC1(C)CCC[C@@]2(C)[C@H]1[C@H](O)C=C1COC(=O)[C@]12O (racemic) [AD153413-10_B3] | 60.9 % inhibition | 43.3 % inhibition | –
O=C(OC[C@@H]1O[C@H](Oc2ccc(O)cc2CO)[C@@H](O)[C@H](O)[C@H]1O)c1ccccc1 (racemic) [AD153413-11_H9] | 60.5 % inhibition | 54.9 % inhibition | –
COc1ccc2c(c1)OC1c3ccc(OC)cc3OCC21 (centres unmarked) [AD153413-01_A10] | 84.5 % inhibition | 77.6 % inhibition | –
CC1(C)C2CC[C@]3(C)C(C(=O)C=C4[C@H]5C[C@@](C)(C(=O)O)CC[C@]5(C)CC[C@]43C)[C@@]2(C)CC[C@@H]1O (some centres unmarked) [AD153413-01_B11] | 75.6 % inhibition | 72.1 % inhibition | –
O=C(O)/C=C/c1ccccc1O[C@H]1O[C@@H](CO)[C@H](O)[C@@H](O)[C@@H]1O [AD153413-02_F8] | 86.7 % inhibition | 44 % inhibition | –
COc1ccc(CCC(=O)O)cc1 [AD153413-03_F11] | 70.6 % inhibition | 41.8 % inhibition | –
Oc1cc(O)cc(CCC/C=C\CCCCCCCCCc2cc(O)cc(O)c2)c1 [AD153413-03_H2] | 73.1 % inhibition | 48.9 % inhibition | –
C[C@]1(C(=O)O)CC[C@@]2(C)CC[C@@]3(C)C4=CC(=O)c5cc(O)c(O)cc5[C@@]4(C)CC[C@]3(C)[C@H]2C1 [AD153413-04_H6] | 77 % inhibition | 52.2 % inhibition | –
COc1cc(O)c2c(=O)c(O[C@H]3O[C@H](C)[C@@H](O)[C@H](O)[C@@H]3O)c(-c3ccc(O)cc3)oc2c1O [AD153413-05_B3] | 72.4 % inhibition | 43.6 % inhibition | –
COc1cc(C)cc(C(=O)O)c1C1=C(O)C(=O)c2c(O)cccc2C1=O [AD153413-06_A10] | 72.4 % inhibition | 64.1 % inhibition | –
NC(=O)c1c[nH]c(Cc2ccccc2)cc1=O [AD153413-06_B9] | 80 % inhibition | 42.9 % inhibition | –
O=C(CCc1ccc(O)cc1)CC(CCc1ccc(O)cc1)OC1O[C@@H](COC(=O)/C=C/c2ccc(O)cc2)[C@H](O)[C@@H](O)[C@@H]1O (some centres unmarked) [AD153413-07_H11] | 70 % inhibition | 45.2 % inhibition | –
C=C(/C=C/[C@@H](CCC(=O)O)C(C)C)CCC(C)=O [AD153413-08_B4] | 73.6 % inhibition | 41.9 % inhibition | –
CC(=O)OC1CC2C(COC(=O)CC(C)C)=CO[C@H](OC(=O)CC(C)C)C2C12CO2 (some centres unmarked) [AD153413-09_A3] | 89.7 % inhibition | 55.9 % inhibition | –
COc1cc(OC)cc([C@@H](C)C(=O)c2ccc(O)cc2O)c1 [AD153413-09_A6] | 81.1 % inhibition | 64.2 % inhibition | –
CC[C@H](C1=C(O)C(C)(C)C(=O)C(C)(C)C1=O)c1c(O)cc(O)c(C(=O)C(C)C)c1O [AD153413-09_B9] | 85.2 % inhibition | 61.5 % inhibition | –
CCC(C)C(=O)O[C@H]1CCC=C2C=C[C@H](C)[C@H](CC[C@@H](O)C[C@@H](O)CC(=O)O)[C@H]21 (some centres unmarked) [AD153413-09_E2] | 90.3 % inhibition | 60.5 % inhibition | –
C=C(C)C1=C[C@@]2(C)C(=CC1=O)CC[C@@H](O)[C@@H]2C [AD153413-10_F2] | 80 % inhibition | 50.8 % inhibition | –
COc1cc(C2c3c(cc(OC)c(O)c3O)CC(CO)C2CO[C@H]2O[C@@H](C(=O)O)[C@H](O)[C@@H](O)[C@@H]2O)cc(OC)c1O (some centres unmarked) [AD153413-11_A11] | 83 % inhibition | 57.1 % inhibition | –
CC(C)C1NC(=O)C2CCCN2C1=O (centres unmarked) [AD153413-12_C11] | 61.7 % inhibition | 44.2 % inhibition | –
CCCCC(C)C(=O)C(CC(C)CCCCCCC(O)CC(O)C(C)NC(C)=O)OC(=O)CC(CC(=O)O)C(=O)O (centres unmarked) [AD153413-12_D11] | 73.7 % inhibition | 50.1 % inhibition | –

Molecule | Results Screen Median Screen (% inhibition) (viral RNA polymerase [1]) | Results Hit validation Median (% inhibition) (viral RNA polymerase [2]) | also measured
OC[C@@H]1O[C@H](Oc2ccc(O)c3cccc(O)c23)[C@@H](O)[C@H](O)[C@H]1O [AD153413-14_C5] | 63.3 % inhibition | 52.6 % inhibition | –
COc1cc(C2OC(c3cc(OC)c(OC)c(OC)c3)C(C)C2C)cc(OC)c1OC (centres unmarked) [AD153413-14_E9] | 67.1 % inhibition | 43.8 % inhibition | –
CC(O)CC1CCC(C(C)C(=O)OC(C)CC2CCC(C(C)C(=O)O)O2)O1 (centres unmarked) [AD153413-16_A3] | 83 % inhibition | 44.5 % inhibition | –
COc1cc(O)c2c(c1)C(O)C(C)OC2=O (centres unmarked) [AD153413-16_B4] | 72.5 % inhibition | 53.6 % inhibition | –
CCCCCCCC/C(=C/CC(=O)O)C(=O)O [AD153413-16_C3] | 84.3 % inhibition | 40.5 % inhibition | –
O=C(/C=C/c1ccc(O)c2c1C(C(=O)O)C(c1ccc(O)c(O)c1)O2)OC(Cc1ccc(O)c(O)c1)C(=O)O (centres unmarked) [AD153413-16_E3] | 77.7 % inhibition | 55.9 % inhibition | –
CCC(C)C(=O)OC1CC(C)C=C2C=CC(C)C(CCC(O)CC(O)CC(=O)O)C21 (centres unmarked) [AD153413-16_G9] | 87.4 % inhibition | 64.7 % inhibition | –
COc1cc(-c2cc(=O)c3c(O)c(C4OC(CO)C(O)C(OC5OC(CO)C(O)C(O)C5OC5OC(CO)C(O)C(O)C5O)C4OC(=O)/C=C/c4ccc(O)c(O)c4)c(O)cc3o2)ccc1O (centres unmarked) [AD153413-17_A4] | 69.6 % inhibition | 52.3 % inhibition | –
CC[C@H](C)/C=C(C)/C=C/C(=O)Cc1cc(O)c(C)c(O)c1C=O [AD153413-17_A5] | 71 % inhibition | 70.9 % inhibition | –
COc1cc(-c2oc3cc(O[C@H]4O[C@@H](CO)[C@H](O)[C@@H](O)[C@@H]4O)c(OC)c(O)c3c(=O)c2OC)ccc1O [AD153413-17_A6] | 77.1 % inhibition | 62.2 % inhibition | –
COC(=O)[C@H](Cc1ccccc1)NC(=O)c1ccccc1 [AD153413-18_A11] | 81 % inhibition | 60.6 % inhibition | –
CC(=O)O[C@H]1C[C@@H](O)[C@]23COC(O)[C@@]1(C)C2C[C@H](O)[C@@]1(C)C3C(=O)[C@@H](OC(C)=O)[C@]2(C)[C@@H](c3ccoc3)C[C@@H]3O[C@@]321 (some centres unmarked) [AD153413-19_D3] | 71.8 % inhibition | 41.6 % inhibition | –
C/C=C/c1ccc2c(c1)[C@H](C)[C@@H](c1ccc(O)cc1)O2 [AD153413-19_H4] | 98.8 % inhibition | 50.8 % inhibition | –
O=C1c2ccc(O)cc2O[C@H](c2ccc(O)c(O)c2)[C@H]1O [AD153413-21_A6] | 68.8 % inhibition | 54.7 % inhibition | –
COC(=O)C1=COC(OC2O[C@@H](CO)[C@H](O)[C@@H](O)[C@@H]2O)[C@H]2C1C=CC21C=C(C(C)CC(=O)/C=C/c2ccc(O)cc2)C(=O)O1 (some centres unmarked) [AD153413-23_G3] | 60.5 % inhibition | 61.7 % inhibition | –
CC1CCC2(C)CCC3(C)C(=CCC4C5(C)CCC(O)C(C)(C(=O)O)C5CCC43C)C2C1C (centres unmarked) [AD153413-25_A7] | 85.9 % inhibition | 70 % inhibition | –
CC(=O)O[C@H]1CC[C@]2(C)C(CC[C@@]3(C)C2[C@@H](O)C=C2[C@@H]4[C@H](C)[C@@H](C)CC[C@@]4(C)CC[C@@]23C)[C@]1(C)C(C)=O (some centres unmarked) [AD153413-25_A8] | 73.8 % inhibition | 86.3 % inhibition | –
CC1=C[C@H](C/C(C)=C/COc2c3occc3cc3ccc(=O)oc23)OC1=O [AD153413-25_H9] | 79.1 % inhibition | 51.1 % inhibition | –
NC(=O)CC[C@H](N)C(=O)O [glutamine, L-glutamine] | – | – | Factor (Clopt1 (Vaccinia virus) [3]): 1222 and 1468 and 1774 and 2000; virus replication, times higher with glutamine in the third medium switch than negative counterparts (Clopt1 (Vaccinia virus) [3]): more than 1000 times; intensity, times lower without glutamine in the third medium switch than counterparts (Clopt1 (Vaccinia virus) [4]): roughly 100 times; final intensity, times lower in glutamine absence than in glutamine fed samples (Clopt1 (Vaccinia virus) [4]; after 21 hours): over 100 times
B1 | – | – | binding result [5]: binds
